Assay results from paper PMC5011342, “A high throughput drug screening assay to identify compounds that promote oligodendrocyte differentiation using acutely dissociated and purified oligodendrocyte precursor cells” (BMC Research Notes, 2016).
Read-outs that look alike come from different tables or passages of the source.

Columns and labels:
[1] = test system: acutely dissociated and purified rat OPCs; test: Acute OL differentiation assay (MBP expression/cell, immunofluorescent image quantification); format: cell-based; conditions: sheet "All OLga data"; for activation at 2 µM / activation at 10 µM / activation at 0.4 µM: Rattus norvegicus; for activation at 0.4 µM: read-out: 0.4 uM (% Quet)
How it was run: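 This acute differentiation assay used purified rat OPCs from postnatal day 6–7 pups, seeded into PDL/laminin-coated 96-well plates in differentiation medium lacking PDGF and FGF. Compounds were applied in quadruplicate after a 1–2 h preincubation at 37 °C, 10 % CO2, with 0.1 % DMSO negative and 40 ng/ml T3 positive controls in eight wells. After fixation on DIV4, anti-MBP immunofluorescence images yielded MBP expression/cell.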

[2] = test system: expanded OPCs; test: cells; conditions: for viability at 0.1 µM / viability at 1 µM / viability at 10 µM: Rattus norvegicus, 72 h
How it was run: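 Toxicity screen: compounds added at 0.1, 1 and 10 µM to PDGF-AA-expanded OPCs in 96-well plates, 3-day incubation at 37 °C, 10% CO2, then alamarBlue 1:10 for 4 h with fluorescence readout. Results set screening doses of 10/2, 2/0.4 or 0.4/0.08 µM.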

[3] = 2 uM test compound, relative to quetiapine, read-out: OL differentiation, 2 uM (% Quet)
[4] = 10 uM test compound, relative to quetiapine, read-out: OL differentiation, 10 uM (% Quet)
[5] = read-out: 0.1 µM (% DMSO), alamarBlue viability of expanded OPCs, compound at 0.1 µM, sheet All Tox data
[6] = read-out: 1 µM (% DMSO), alamarBlue viability of expanded OPCs, compound at 1 µM, sheet All Tox data
[7] = read-out: 10 µM (% DMSO), alamarBlue viability of expanded OPCs, compound at 10 µM, sheet All Tox data
[8] = test compound at 2 uM, NCC library screen, relative to quetiapine, read-out: 2 uM (% Quet)
[9] = test compound at 10 uM, NCC library screen, relative to quetiapine, read-out: 10 uM (% Quet)
[10] = alamarBlue viability of expanded OPCs, compound at 0.1 µM, relative to DMSO control
[11] = alamarBlue viability of expanded OPCs, compound at 1 µM, relative to DMSO control
[12] = alamarBlue viability of expanded OPCs, compound at 10 µM, relative to DMSO control
[13] = 2 uM test compound, relative to quetiapine
[14] = 10 uM test compound, relative to quetiapine
[15] = alamarBlue viability of expanded OPCs, compound at 0.1 µM, sheet All Tox data
[16] = alamarBlue viability of expanded OPCs, compound at 1 µM, sheet All Tox data
[17] = alamarBlue viability of expanded OPCs, compound at 10 µM, sheet All Tox data
[18] = read-out: 0.1 µM (% DMSO), alamarBlue viability, NCC library compound at 0.1 µM, sheet "All Tox data"
[19] = read-out: 1 µM (% DMSO), alamarBlue viability, NCC library compound at 1 µM, sheet "All Tox data"
[20] = read-out: 10 µM (% DMSO), alamarBlue viability, NCC library compound at 10 µM, sheet "All Tox data"
[21] = test compound at 2 uM, MBP expression relative to quetiapine, NCC library screen, read-out: 2 uM (% Quet)
[22] = test compound at 10 uM, MBP expression relative to quetiapine, NCC library screen, read-out: 10 uM (% Quet)
[23] = test compound at 0.4 uM, NCC library screen, relative to quetiapine

Compound: N#Cc1ccc(C(c2ccc(C#N)cc2)n2cncn2)cc1 [letrozole]
- activation at 2 µM [1, 3]: 1.2%
- activation at 10 µM [1, 4]: -4.8%
- viability at 0.1 µM [2, 5]: 92%
- viability at 1 µM [2, 6]: 99.2%
- viability at 10 µM [2, 7]: 101%

Compound: CC(C)NCC(O)c1ccc(O)c(O)c1 (centres unmarked) [Isoproterenol]
- activation at 2 µM [1, 8]: -19.5%
- activation at 10 µM [1, 9]: -148%
- 0.1 µM (% DMSO) [2, 10]: 95.1 % DMSO
- 1 µM (% DMSO) [2, 11]: 94.6 % DMSO
- 10 µM (% DMSO) [2, 12]: 67.7 % DMSO

Compound: C[C@@H]1C[C@H]2[C@@H]3C[C@H](F)C4=CC(=O)C(Cl)=C[C@]4(C)[C@@]3(F)[C@@H](O)C[C@]2(C)[C@@]1(O)C(=O)CO.O [Halometasone hydrate]
- OL differentiation, 2 uM (% Quet) [1, 13]: -42.5 % Quet
- OL differentiation, 10 uM (% Quet) [1, 14]: -89.7 % Quet
- 0.1 µM (% DMSO) [2, 15]: 103.7 % DMSO
- 1 µM (% DMSO) [2, 16]: 109.3 % DMSO
- 10 µM (% DMSO) [2, 17]: 105.9 % DMSO

Compound: C=CC1=C(C(=O)O)N2C(=O)[C@@H](NC(=O)/C(=N\O)c3csc(N)n3)[C@H]2SC1 [Cefdinir]
- activation at 2 µM [1, 8]: 13.5%
- activation at 10 µM [1, 9]: 23%
- viability at 0.1 µM [2, 18]: 86.5%
- viability at 1 µM [2, 19]: 90.2%
- viability at 10 µM [2, 20]: 84.8%

Compound: CC(C)(C)NC(=O)[C@H]1CC[C@H]2[C@@H]3CC[C@H]4NC(=O)C=C[C@]4(C)[C@H]3CC[C@]12C [Finasteride]
- activation at 2 µM [1, 3]: -14.4%
- activation at 10 µM [1, 4]: -17.4%
- viability at 0.1 µM [2, 5]: 83.3%
- viability at 1 µM [2, 6]: 85.8%
- viability at 10 µM [2, 7]: 85.3%

Compound: CC(C)(C)C(O)/C=C/c1ccc2c(c1)OCO2 (centres unmarked) [Stiripentol]
- activation at 2 µM [1, 8]: -12%
- activation at 10 µM [1, 9]: -14.2%
- viability at 0.1 µM [2, 18]: 85.4%
- viability at 1 µM [2, 19]: 89.5%
- viability at 10 µM [2, 20]: 83.7%

Compound: CCC(COC(=O)c1cc(OC)c(OC)c(OC)c1)(c1ccccc1)N(C)C (centres unmarked) [Trimebutine]
- activation at 2 µM [1, 3]: 31.4%
- activation at 10 µM [1, 4]: -25.8%
- viability at 0.1 µM [2, 5]: 113%
- viability at 1 µM [2, 6]: 135%
- viability at 10 µM [2, 7]: 147%

Compound: Sc1ncnc2nc[nH]c12 [Mercaptopurine]
- activation at 2 µM [1, 21]: 3.6%
- activation at 10 µM [1, 22]: -5.6%
- 0.1 µM (% DMSO) [2, 10]: 92.3 % DMSO
- 1 µM (% DMSO) [2, 11]: 92.7 % DMSO
- 10 µM (% DMSO) [2, 12]: 95.9 % DMSO

Compound: O=C1NC(=O)C(c2ccccc2)(c2ccccc2)N1 [Phenytoin]
- activation at 2 µM [1, 21]: -25.2%
- activation at 10 µM [1, 22]: -26.2%
- 0.1 µM (% DMSO) [2, 10]: 88.8 % DMSO
- 1 µM (% DMSO) [2, 11]: 86.9 % DMSO
- 10 µM (% DMSO) [2, 12]: 83.9 % DMSO

Compound: CC1=NS(=O)(=O)c2cc(Cl)ccc2N1 [Diazoxide]
- activation at 2 µM [1, 8]: -1.9%
- activation at 10 µM [1, 9]: -7.1%
- viability at 0.1 µM [2, 18]: 98.9%
- viability at 1 µM [2, 19]: 86.5%
- viability at 10 µM [2, 20]: 82.6%

Compound: CC[C@H](C)C(=O)O[C@H]1C[C@@H](C)C=C2C=C[C@H](C)[C@H](CC[C@@H]3C[C@@H](O)CC(=O)O3)[C@H]21 [Lovastatin]
- activation at 0.4 µM ([1]; test compound at 0.4 uM, MBP expression relative to quetiapine, NCC library screen): -70.9%
- activation at 2 µM [1, 21]: -93.2%
- 0.1 µM (% DMSO) [2, 10]: 147.6 % DMSO
- 1 µM (% DMSO) [2, 11]: 99.7 % DMSO
- 10 µM (% DMSO) [2, 12]: 46.0 % DMSO

Compound: CCc1oc2ccccc2c1C(=O)c1cc(Br)c(O)c(Br)c1 [Benzbromarone]
- activation at 0.4 µM [1, 23]: -1.1%
- activation at 2 µM [1, 8]: 23.7%
- viability at 0.1 µM [2, 18]: 95.3%
- viability at 1 µM [2, 19]: 93.2%
- viability at 10 µM [2, 20]: 35.6%

Compound: CN(C)CCCSc1ccccc1NC(=O)/C=C/c1ccccc1 [Cinanserin]
- activation at 2 µM [1, 3]: 64.2%
- activation at 10 µM [1, 4]: 63.5%
- viability at 0.1 µM [2, 5]: 80.3%
- viability at 1 µM [2, 6]: 84.3%
- viability at 10 µM [2, 7]: 74.7%

Compound: O=C1NC(C(=O)O)CS1 (centres unmarked) [2-oxothiazolidine-4-carboxylic acid]
- OL differentiation, 2 uM (% Quet) [1, 13]: -5.5 % Quet
- OL differentiation, 10 uM (% Quet) [1, 14]: 20.5 % Quet
- 0.1 µM (% DMSO) [2, 15]: 78.9 % DMSO
- 1 µM (% DMSO) [2, 16]: 89.6 % DMSO
- 10 µM (% DMSO) [2, 17]: 83.7 % DMSO

Compound: Cc1c(OCC(F)(F)F)ccnc1C[S+]([O-])c1nc2ccccc2[nH]1 (centres unmarked) [Lansoprazole]
- activation at 2 µM [1, 8]: -3.1%
- activation at 10 µM [1, 9]: -72%
- viability at 0.1 µM [2, 18]: 94.2%
- viability at 1 µM [2, 19]: 86.3%
- viability at 10 µM [2, 20]: 99.9%

Compound: C/C(=C\C(=O)OCCCCCCCCC(=O)O)C[C@@H]1OC[C@H](C[C@@H]2O[C@H]2[C@@H](C)[C@H](C)O)[C@@H](O)[C@H]1O [Mupirocin]
- activation at 2 µM [1, 21]: -2.9%
- activation at 10 µM [1, 22]: 0.04%
- 0.1 µM (% DMSO) [2, 10]: 103.2 % DMSO
- 1 µM (% DMSO) [2, 11]: 108.1 % DMSO
- 10 µM (% DMSO) [2, 12]: 104.3 % DMSO

Compound: CCCc1nc2c(C)cc(-c3nc4ccccc4n3C)cc2n1Cc1ccc(-c2ccccc2C(=O)O)cc1 [Telmisartan]
- activation at 2 µM [1, 8]: -6.1%
- activation at 10 µM [1, 9]: -61.8%
- viability at 0.1 µM [2, 18]: 95.6%
- viability at 1 µM [2, 19]: 82.3%
- viability at 10 µM [2, 20]: 53.3%

Compound: CCOC(=O)[C@H](CCc1ccccc1)N[C@@H](C)C(=O)N1Cc2ccccc2C[C@H]1C(=O)O [Quinapril]
- activation at 2 µM [1, 21]: 2.2%
- activation at 10 µM [1, 22]: -12.2%
- 0.1 µM (% DMSO) [2, 10]: 95.3 % DMSO
- 1 µM (% DMSO) [2, 11]: 90.0 % DMSO
- 10 µM (% DMSO) [2, 12]: 85.6 % DMSO

Compound: CN1CC[C@]2(c3cccc(O)c3)Cc3nc4ccccc4cc3C[C@H]2C1 [SB 205607]
- 0.4 uM (% Quet) [1, 23]: 15.0 % Quet
- 2 uM (% Quet) ([1]; test compound at 2 uM, NCC library screen, relative to quetiapine): 5.9 % Quet
- 0.1 µM (% DMSO) ([2]; alamarBlue viability, NCC library compound at 0.1 µM, sheet "All Tox data"): 84.0 % DMSO
- 1 µM (% DMSO) ([2]; alamarBlue viability, NCC library compound at 1 µM, sheet "All Tox data"): 78.4 % DMSO
- 10 µM (% DMSO) ([2]; alamarBlue viability, NCC library compound at 10 µM, sheet "All Tox data"): 50.8 % DMSO

Compound: CC1=C(/C=C/C(C)=C/C=C/C(C)=C\C(=O)O)C(C)(C)CCC1 [Isotretinoin]
- activation at 2 µM [1, 21]: -19.2%
- activation at 10 µM [1, 22]: -6.2%
- 0.1 µM (% DMSO) [2, 10]: 104.5 % DMSO
- 1 µM (% DMSO) [2, 11]: 112.6 % DMSO
- 10 µM (% DMSO) [2, 12]: 136.3 % DMSO

Compound: Cc1nc2ccccn2c(=O)c1CCN1CCC(C(=O)c2ccc(F)cc2)CC1 [Pirenperone]
- activation at 2 µM [1, 3]: 31.6%
- activation at 10 µM [1, 4]: 62.7%
- viability at 0.1 µM [2, 18]: 102%
- viability at 1 µM [2, 19]: 92.1%
- viability at 10 µM [2, 20]: 83%

Compound: N=C(N)NC(=O)c1nc(Cl)c(N)nc1N [Amiloride]
- activation at 2 µM [1, 3]: -5.9%
- activation at 10 µM [1, 4]: -0.4%
- viability at 0.1 µM [2, 5]: 82.2%
- viability at 1 µM [2, 6]: 83.7%
- viability at 10 µM [2, 7]: 90.8%
